Data published in patent US20230053688A1, “METHODS TO ALTER LATENCY IN EBV+ MALIGNANCIES” (Cornell University, priority 2020, published 2023).
Structures can show the parent of a compound that is named as a salt. Where two headings read alike, the source gives them in different places.

Key:
[1] = test system: LMP1 and Cp transcripts in Kem I, Mutu I, and Rael cell lines; type: cell-based, EBV
[2] = test system: LMP1 and EBNA3C proteins in BL cells; experiment: Immunoblot for viral proteins in BL cells; type: cell-based, EBV; conditions: 48 hours
Experimental: Immunoblot was performed with the standard procedure using the following antibodies: β-actin (GeneTex), BZLF1 (Santa Cruz), EBNA1 (Santa Cruz), EBNA2 (AbCam), EBNA3C (gift from Benjamin Gewurz), GAPDH (GeneTex), and LMP1 (AbCam).
Since decitabine and 5-azacytadine were the top hits on the epigenetic screen, the effect of these agents on latency II/III transcript and protein expression was investigated as well as the dose-response in a panel of BL cell lines. BL cells were treated with decitabine or 5-azacytidine over a range of doses. Viral antigen expression was evaluated by qRT-PCR, immunoblot, and immunohistochemistry. […] This was associated with upregulation of LMP1 and EBNA3C proteins (FIG. 2B).

Mutu I = experiment: Cell viability, CellTiter-Glo; conditions: read-out: 48 Hour IC50
Experimental: (§1) Cell viability was determined using CellTiter-Glo (Promega) and the GloMax® Multi+ detection system (Promega).
(§2) Cell viability was determined using an ATP based luminescent assay (CellTiter-Glo, Promega) and the GloMax® Multi+ detection system (Promega). IC50 values were calculated using Prism 6 software.
(§3) To determine if induction of LMP1 and EBNA3 were linked to hypomethylating agent-induced cell death, cells were exposed to decitabine or 5-azacytadine over a range of doses and cell viability evaluated with the ATP-based Cell Titer-Glo® assay.

BL cells = experiment: Cell viability, CellTiter-Glo, statements for the BL cell panel
Experimental: as §1, §2, §3

[3] = test system: LMP1 expression in Kem I cells; experiment: microbe, parasite or virus in culture; type: cell-based, EBV; conditions: for fold induction at 1 µM / fold induction at 2.5 µM: human gammaherpesvirus 4, 48 h; for Average LMP1 Fold Increase / Replicate 1-LMP1 Fold Increase / Replicate 2-LMP1 Fold Increase: Kem I cells, 2.5 uM, 48 hours; for Average LMP1 Fold Increase: average of replicates 1 and 2; for Replicate 1-LMP1 Fold Increase / Replicate 2-LMP1 Fold Increase: fold change in LMP1 transcript vs vehicle
Kem I = experiment: Cell viability, CellTiter-Glo; conditions: 48 h, read-out: 48 Hour IC50
Experimental: as §1, §2, §3

[4] = test system: EBNA2 and LMP1 in Mutu I, Kem I, and Rael cells; experiment: Immunohistochemistry on cell blocks, statement across the three cell lines; type: cell-based, EBV; conditions: 5-Aza at 4 uM, 48 hours, compared with decitabine
Experimental: Cell blocks were generated from cell lines in suspension by fixation in 10% formalin. Immunohistochemistry on cell blocks and mouse tumors was performed with the following antibodies: EBNA2 (abcam #ab90543), LMP1 (Dako #M0897), BZLF1 (Santa Cruz #SC-53904), CD8 (Leica #PA0183), PD-1 (Dako #M3653), PD-L1 (Cell Marque #315M-98). The Halo® image analysis software program (Indica Labs) was used to quantify immunohistochemical stains.
Next it was determined the percentage of cells that convert to expressing latency […] antigens after treatment with decitabine or 5-azacytadine. To do this, EBV antigen expression at the single-cell level was evaluated by immunohistochemistry (IHC) from cell blocks. Cells were treated with 5-azacytidine, decitabine, or vehicle control. Cell blocks were then evaluated by IHC for LMP1 and EBNA2. The percentage of positive cells was quantified with HALO image analysis. […] 5-azacytidine induced a more modest expression of EBNA2 and LMP1 across the three cell lines (FIGS. 2E-F). Based on these observations, decitabine was further investigated as a potential agent to induce expression of immunogenic viral antigens in latency I tumors.

Rael = experiment: Cell viability, CellTiter-Glo; conditions: read-out: 48 Hour IC50
Experimental: as §1, §2, §3

[5] = read-out: Average LMP1 Fold Increase, Kem I cells, 1 uM, 48 hours, average of replicates 1 and 2
[6] = read-out: Replicate 1-LMP1 Fold Increase, Kem I cells, 1 uM, 48 hours, fold change in LMP1 transcript vs vehicle
[7] = read-out: Replicate 2-LMP1 Fold Increase, Kem I cells, 1 uM, 48 hours, fold change in LMP1 transcript vs vehicle
[8] = read-out: Average LMP1 Fold Increase, Kem I cells, 2.5 uM, 48 hours, average of replicates 1 and 2
[9] = read-out: Replicate 1-LMP1 Fold Increase, Kem I cells, 2.5 uM, 48 hours, fold change in LMP1 transcript vs vehicle
[10] = read-out: Replicate 2-LMP1 Fold Increase, Kem I cells, 2.5 uM, 48 hours, fold change in LMP1 transcript vs vehicle

With `Nc1ncn([C@@H]2O[C@H](CO)[C@@H](O)[C@H]2O)c(=O)n1` [5-azacytidine] the “optimal dose for induction” value ([1]; BL cells) was 1 to 4 µM, the “induction of LMP1 and Cp” value ([1]; at doses <1 μM, 48 hours) was “minimal” and the “LMP1 and EBNA3C proteins (immunoblot)” value [2] was “not associated with significant induction”. The IC50 (Mutu I) was 4 µM, the IC50 (BL cells) was ≥ 2.2 µM and the “change in cell viability” value (BL cells; at the optimal dose for induction) was “minimal change”. For the same compound, the fold induction at 1 µM [3, 5] was 4.1, the fold induction at 1 µM [3, 6] was 5.77 and the fold induction at 1 µM [3, 7] was 2.43. The IC50 (Kem I) was > 5 µM, the “expression of EBNA2 and LMP1 (IHC)” value [4] was “more modest” and the IC50 (Rael) was 2.2 µM.

Compound `COc1cccc2c1C(=O)c1c(O)c3c(c(O)c1C2=O)C[C@@](O)(C(=O)CO)C[C@@H]3O[C@H]1C[C@H](N)[C@H](O)[C@H](C)O1` [Doxorubicin] has a fold induction at 1 µM [3, 5] of 47, a fold induction at 1 µM [3, 6] of 39.2 and a fold induction at 1 µM [3, 7] of 54.8.

`CCOC(=O)c1cncn1[C@H](C)c1ccccc1` [Etomidate] was tested, and the fold induction at 2.5 µM [3, 8] was 0.5, the fold induction at 2.5 µM [3, 9] was 0.56 and the fold induction at 2.5 µM [3, 10] was 0.44.

Compound `Cc1c(-c2ccc(O)cc2)n(Cc2ccc(OCCN3CCCCCC3)cc2)c2ccc(O)cc12` [Bazedoxifene HCl] has a fold induction at 2.5 µM [3, 8] of 0.54, a fold induction at 2.5 µM [3, 9] of 0.52 and a fold induction at 2.5 µM [3, 10] of 0.56.

With Ifenprodil Tartrate the “Average LMP1 Fold Increase” value [3] was 0.96, the “Replicate 1-LMP1 Fold Increase” value [3] was 0.58 and the “Replicate 2-LMP1 Fold Increase” value [3] was 1.35.

With `C/C(=N\NC(=S)N1CCC1)c1ccccn1` [NSC 319726] the “Average LMP1 Fold Increase” value [3] was 19.87, the “Replicate 1-LMP1 Fold Increase” value [3] was 7.26 and the “Replicate 2-LMP1 Fold Increase” value [3] was 32.48.

With `CC(C)Oc1ccc(-c2cnc3c(-c4ccnc5ccccc45)cnn3c2)cc1` [DMH1] the “Average LMP1 Fold Increase” value [3] was 0.75, the “Replicate 1-LMP1 Fold Increase” value [3] was 0.21 and the “Replicate 2-LMP1 Fold Increase” value [3] was 1.28.
